Source: patent publication US8748575B2, “Therapeutic peptides” (Combimab, Inc., priority 2010, dated 2014)

Legend:
[1] = Mouse intestinal secretion assay (suckling mouse assay); format: in vivo; design: key to Mouse intestinal secretion assay (suckling mouse): 1+ (lowest activity/potency); ++: Results are graded from 1+ (lowest activity/potency) to 5+ (highest activity/potency); +++: Results are graded from 1+ (lowest activity/potency) to 5+ (highest activity/potency); ++++: Results are graded from 1+ (lowest activity/potency) to 5+ (highest activity/potency); +++++: 5+ (highest activity/potency); conditions: for Mouse intestinal secretion assay (suckling mouse): graded activity/potency
Description: A relevant disease model is the suckling mouse model in which STa (5-18) is deposited into the stomach of 3-4 day old mice, and the accumulation of fluid in their intestines is determined gravimetrically (Parkinson et al., 1994). All GCC peptides were formulated to the desired concentration in Dulbecco's PBS (1×, No Ca++, no Mg++) containing […] immediately prior to dosing. Proteinase inhibitors were prepared as stock solutions in PBS and added to dosing solutions by serial dilution, as needed. The dosing solution (50 μL) was delivered into the stomachs of 2-4 day old mice (3 per dosing group) using a plastic tube attached to the needle of a 1 mL tuberculin syringe. After 3 hours, the animals were sacrificed and dissected to determine the individual weights of the intestines and the rest of the carcass, respectively.

[2] = target: T1, GC-C (Mus musculus, UniProt Q3UWA6); experiment: Intestinal membrane 125I-STa competitive radioligand binding assay; design: key to I-125 binding assay: 1+ (lowest activity/potency); ++: Results are graded from 1+ (lowest activity/potency) to 5+ (highest activity/potency); +++: Results are graded from 1+ (lowest activity/potency) to 5+ (highest activity/potency); ++++: Results are graded from 1+ (lowest activity/potency) to 5+ (highest activity/potency); +++++: 5+ (highest activity/potency); conditions: for I-125 binding assay: graded activity/potency, mouse intestinal membranes
T1 construct: freshly prepared mouse intestine membranes; from tissue; host or cells: mouse intestine (membrane preparation)
T1 sequence (Q3UWA6 20-1072): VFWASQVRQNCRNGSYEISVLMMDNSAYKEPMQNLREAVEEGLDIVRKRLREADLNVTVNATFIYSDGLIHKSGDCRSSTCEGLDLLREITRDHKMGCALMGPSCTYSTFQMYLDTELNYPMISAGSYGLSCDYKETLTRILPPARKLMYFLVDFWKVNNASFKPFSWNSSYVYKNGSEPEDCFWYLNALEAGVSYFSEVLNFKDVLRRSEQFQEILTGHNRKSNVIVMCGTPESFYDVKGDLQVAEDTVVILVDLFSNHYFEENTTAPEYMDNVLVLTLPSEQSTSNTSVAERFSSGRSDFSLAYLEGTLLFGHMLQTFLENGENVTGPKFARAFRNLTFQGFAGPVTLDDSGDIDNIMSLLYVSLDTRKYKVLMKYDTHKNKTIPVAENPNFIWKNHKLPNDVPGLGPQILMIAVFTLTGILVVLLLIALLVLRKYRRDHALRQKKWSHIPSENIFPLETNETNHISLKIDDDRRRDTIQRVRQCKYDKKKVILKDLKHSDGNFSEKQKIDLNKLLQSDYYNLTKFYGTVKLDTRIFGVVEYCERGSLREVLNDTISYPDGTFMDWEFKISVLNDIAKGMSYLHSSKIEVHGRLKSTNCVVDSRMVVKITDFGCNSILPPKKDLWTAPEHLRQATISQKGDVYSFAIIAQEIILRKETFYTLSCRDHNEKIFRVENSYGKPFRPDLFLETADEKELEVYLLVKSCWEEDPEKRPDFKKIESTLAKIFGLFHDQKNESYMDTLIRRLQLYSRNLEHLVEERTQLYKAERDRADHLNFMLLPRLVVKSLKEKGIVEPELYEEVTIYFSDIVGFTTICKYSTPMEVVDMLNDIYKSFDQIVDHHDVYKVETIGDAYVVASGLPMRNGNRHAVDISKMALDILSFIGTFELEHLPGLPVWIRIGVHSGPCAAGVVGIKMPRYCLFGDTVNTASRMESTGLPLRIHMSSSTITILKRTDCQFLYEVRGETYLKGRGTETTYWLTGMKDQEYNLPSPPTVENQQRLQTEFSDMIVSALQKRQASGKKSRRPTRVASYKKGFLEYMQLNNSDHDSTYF
Description: Intestinal membrane 1-125 labeled radioligand binding assay. The intestinal membrane radioligand binding assay was used to assess whether a novel compound could displace ^125I-STa from GC-C (Crane et al., 1992). Each analog was analyzed for its ability to displace ^125I-STa from GC-C in a competitive binding assay. ^125I-ST Displaced” was determined by co-incubating STa analogs (10 μM) with 50,000 DPM of ^125I-STa (1-18) in the presence of mouse intestinal membranes. The displacement (n=3) for each analog was determined relative to a vehicle control.
Membranes were prepared from freshly harvested mouse intestines by first washing away the blood or feces with ice-cold Dulbecco's PBS. Washed organs were minced with a single-edged razor blade, followed by homogenization on ice in 50 mM Tris, pH 7.6, containing 1 mM EDTA, 1 mM PMSF, 1 mM DTT. Debris was then removed by a 15 minute centrifugation at 3,000×G and 4° C. The supernatant is then passed through successively smaller needles (18 gauge through 25 gauge) and frozen at −70° C. until used as a tissue homogenate. If intended for use as isolated membranes, the above homogenate was centrifuged (100,000×G) at 4° C. for 1 hour while fresh and the pellet was re-suspended in homogenization buffer.
The assay was performed in 96 well filter plates which were pre-incubated overnight with 200 μl of 0.3% polyethylenimine (w/v) and washed three times by aspiration with 300 μl of Wash Buffer (150 mM NaCl, 20 mM Sodium Phosphate pH=7.2, 1 mM EDTA) immediately before use. Into each well of was added 50 μl of 3× Binding buffer (150 mM Tris-HCl pH=7.6, 1.98 mM Cysteamine, 0.3% Bacitracin, 1350 mM NaCl, 3 mM EDTA), 40 μl of double-distilled water, 10 μl of either double-distilled water or cold ligand (50 uM STa (5-18) in double-distilled water), 10 μl of increasing concentrations (125 DPM/ul to 50,000 DPM/ul) of radiolabeled 125I -STa (1-18) and finally 40 μl (approximately 2 mg protein/ml) of freshly prepared mouse intestine membranes. The plates were then incubated with mixing at 37 C for two hr, washed successively with six 200 μl aliquots of Wash Buffer and aspirated to dryness. The filter bottoms of each well were punched into individual borosilicate tubes and bound radioactivity determined in a gamma counter. Protein content was determined on an aliquot of the mouse intestine membranes used in the Biorad Protein Assay.

[3] = system: T84 cells (GC-C); experiment: Intact T84 cell cGMP accumulation assay; format: cell-based, Human; design: key to CGMP accumulation assay: 1+ (lowest activity/potency); ++: Results are graded from 1+ (lowest activity/potency) to 5+ (highest activity/potency); +++: Results are graded from 1+ (lowest activity/potency) to 5+ (highest activity/potency); ++++: Results are graded from 1+ (lowest activity/potency) to 5+ (highest activity/potency); +++++: 5+ (highest activity/potency); conditions: for CGMP accumulation assay: graded activity/potency, T84 cells; for activity in the cGMP accumulation assay: FIG. 22, compared to STa peptide
Description: The intact T84 cell assay was used to detect the accumulation of cGMP, the product of agonism, upon interaction with a compound (Visweswariah et al., 1992). Human colorectal adenocarcinoma T84 cells were grown to confluence in a 24 well plate using DMEM/F12 medium supplemented with 10% FBS. The media was aspirated from each well and the cells were washed three times with Dulbecco's PBS (1×, no Ca2+ or Mg2+). The cells were then incubated for 30 minutes at 37° C. with 1 mM […] (IBMX) in Optimem medium (no FBS), either with or without potential antagonists. After incubation under these conditions, a 10× concentrated stock of a known GC-C agonist (e.g., STa (5-18)) in PBS was added to each well and the incubation continued for an additional 15 min at 37° C.
The reaction was stopped by the addition of 200 μL of Passive Lysis Buffer (Promega) to each well. The supernatant was removed for cGMP quantitation by RIA using ^125I-labeled cGMP 54 antibody relative to an external cGMP standard curve. The cells were scraped from the surface for protein content determination using a BioRad Protein Assay.

[4] = FIG. 20, compared to ST peptide
[5] = FIG. 21, compared to linaclotide

Row | Substance | activity in the mouse intestinal secretion assay ([1]; FIG. 26, compared to STa) | Mouse intestinal secretion assay (suckling mouse) [1] | activity in the I-125 labeled radioligand binding assay ([2]; FIG. 18, compared to STa) | I-125 binding assay [2] | CGMP accumulation assay [3] | activity in the cGMP accumulation assay ([3]; second experiment) | activity in the mouse intestinal secretion assay ([1]; FIG. 24, compared to linaclotide) | activity in the mouse intestinal secretion assay ([1]; FIG. 25, compared to STa peptide) | activity in the I-125 labeled radioligand binding assay ([2]; FIG. 19, compared to linaclotide) | activity in the I-125 labeled radioligand binding assay [2, 4] | activity in the I-125 labeled radioligand binding assay [2, 5] | activity in the cGMP accumulation assay [3]
1 | H2N Cys Cys Glu L-Thr Cys Cys Asn Pro Ala Cys Ala Gly Cys Tyr COOH (H-CCETCCNPACAGCY-OH; not fully specified (bridges); printed as Cys Cys Glu Thr Cys Cys Asn Pro Ala Cys Ala Gly Cys Tyr; cysteine pairing not given here) [Peptide B] | lower activity | +++ | activity comparable to STa | ++++ | +++ | lower than the STa peptide |  |  |  |  |  | 
2 | H2N Cys Cys Glu Leu Cys Cys Asn Dhp Ala Cys Ala Gly Cys Tyr COOH (CCELCCNXACAGCY; not fully specified; non-natural residue Dhp; Modified Amino Acid (8)..(8): Xaa8 = Dhp = 3,4,-dihydro-Proline, D-Pro 3,4-Dehydroproline) [Peptide A] | higher activity than STa | +++++ | better activity than STa | +++++ | +++++ | higher than the STa peptide | better activity than linaclotide | higher activity than the STa peptide | superior activity compared to linaclotide | superior to ST peptide | superior to linaclotide | higher than the STa peptide
3 | H2N Cys Cys Glu Leu Cys Cys Asn HyPro Ala Cys Ala Gly Cys Tyr COOH (CCELCCNXACAGCY; not fully specified; non-natural hydroxy residue; Modified Amino Acid (8)..(8): Xaa8 = HyPro = Hydroxy-Proline, Hyp, Hydroxyproline) [Peptide C] |  |  |  | ++ | +++ | lower than the STa peptide |  |  |  | comparable to ST peptide | lower than linaclotide | 
4 | H2N Cys Cys Glu Leu Cys Cys Asn Thz Ala Cys Ala Gly Cys Tyr COOH (CCELCCNXACAGCY; not fully specified; non-natural residue Thz; Modified Amino Acid (8)..(8): Xaa8 = Thz = Thiazolidine (4-thiazolidine-2-carboxylic acid), Tzd) [Peptide D] | higher activity than STa | +++++ |  | +++++ | +++++ | higher than the STa peptide |  |  |  | superior to ST peptide |  | 
